Values of other authors as cited in US9119409B2, “Water soluble nutritional supplement for ruminants” (priority 2013, dated 2015).
Where two headings read alike, the source gives them in different places.

O=C([O-])[O-].[Ca+2] [calcium carbonate]
bioavailability (at a pH greater than 4): less than 1% | bioavailability (at a pH of 1.5): around 75%
